Test results: patent publication US10206893B2, “Immunoregulatory agents” (Flexus Biosciences, Inc., priority 2014, dated 2019)

Biological target: T1, human IDO1 (Homo sapiens, UniProt P14902)
T1 construct: expressed in transfected cells
Assay: IDO inhibition assay in HEK293 cells stably expressing human IDO1 (kynurenine, Ehrlich reagent)
Assay type: cell-based
Settings: 20 hours incubation, read-out: HEK Human IDO-1 Bio Activity
Procedure: They were cultured in medium (DMEM with 10% FBS) containing 1 mg/ml G418 for two weeks.
The human IDO1/HEK293 cells were seeded at 10,000 cells per 50 μL per well with RPMI/phenol red free media contains 10% FBS in a 384-well black wall clear bottom tissue culture plate (Matrix Technologies LLC) 100 nL of certain concentration of compound was then added to each well using ECHO liquid handling systems. The cells were incubated for 20 hours in 37° C. incubator with 5% CO2.
The compound treatments were stopped by adding trichloroacetic acid (Sigma-Aldrich) to a final concentration at 0.2%. The cell plate was further incubated at 50° C. for 30 minute. The equal volume supernatant (20 μL) and 0.2% (w/v) Ehrlich reagent (4-dimethylaminobenzaldehyde, Sigma-Aldrich) in glacial acetic acid were mixed in a new clear bottom 384-well plate. This plate was then incubated at room temperature for 30 minute. The absorbance at 490 nm was measured on Envision plate reader.

T1 sequence (P14902 whole entry): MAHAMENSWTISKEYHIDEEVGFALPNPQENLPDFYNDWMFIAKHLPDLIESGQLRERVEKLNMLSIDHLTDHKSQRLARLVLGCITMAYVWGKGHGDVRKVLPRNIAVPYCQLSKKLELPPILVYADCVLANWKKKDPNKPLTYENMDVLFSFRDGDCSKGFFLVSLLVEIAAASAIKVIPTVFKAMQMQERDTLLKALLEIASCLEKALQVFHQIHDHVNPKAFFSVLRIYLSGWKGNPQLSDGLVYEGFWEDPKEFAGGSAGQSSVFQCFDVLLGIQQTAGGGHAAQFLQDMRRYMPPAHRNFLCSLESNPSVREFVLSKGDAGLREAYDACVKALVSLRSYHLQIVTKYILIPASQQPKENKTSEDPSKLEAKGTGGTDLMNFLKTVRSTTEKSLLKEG

**Q.** For CC[C@@H](NC(=O)c1ccc(-c2ccccc2)cc1)[C@H]1CC[C@H](c2cnc3ccccc3c2)CC1 [Example 201, N—((R)-1-((1r,4R)-4-(quinolin-3-yl)cyclohexyl)propyl)-[1,1′-biphenyl]-4-carboxamide], which IC50 is on record?
**A.** < 250 nM

**Q.** CC[C@H](NC(=O)c1ccc(-c2ccccc2)cc1)[C@H]1CC[C@H](c2cnc3ccccc3c2)CC1 [Example 202, N—((S)-1-((1r,4S)-4-(quinolin-3-yl)cyclohexyl)propyl)-[1,1′-biphenyl]-4-carboxamide] was tested. Which IC50 did it give?
**A.** < 50 nM

**Q.** For COc1ccc(-c2ccc(C(=O)N[C@H](C)[C@H]3CC[C@@H](c4ccnc5ccc(F)cc54)CC3)cc2)nc1 [Example 239, N-((R)-1-((1s,4S)-4-(6-fluoroquinolin-4-yl)cyclohexyl)ethyl)-4-(5-methoxypyridin-2-yl)benzamide], which IC50 is on record?
**A.** < 50 nM

**Q.** How did the IC50 turn out when “(R)-1-(cis-4-(6-fluoroquinolin-4- yl)cyclohexyl)-N-methylethanamine [Example 194]” was run?
**A.** < 50 nM
